{"source": "patent US20060122106A1", "about": "“Prevention and/or treatment of inflammatory bowel disease using pyy or agonists thereof” (Amylin Pharmaceuticals, Inc, priority 2002, published 2006)", "system": "rat model of chronic colonic inflammation (colitis induced by TNBS)", "test": "TNBS hapten-induced colitis model of inflammatory bowel disease (Example 1)", "format": "in vivo", "conditions": "for gross morphologic damage score index: male HSD rats, colitis by 30 mg/kg TNBS intracolonic, colon scored (0-5, Table 1) four days after induction, saline control 3.24±0.66, PYY[3-36] 900 μg/kg s.c. twice daily, Depo-Medrol 600 μg/kg i.m., 5-ASA 200 mg/kg intracolonic; for spleen weight (systemic immune suppression): rat, in vivo", "experimental": "Animal preparation: 10-11 weeks old male HSD rats, ranging 250-300 grams, were housed in a 12:12 light:dark cycle, and allowed ad libitum access to a standard rodent diet (Teklad L M 485, Madison, Wis.) and water. The animals were fasted for 24 hours before the experiment. Procedure: A simple and reproducible rat model of chronic colonic inflammation has been previously described by Morris G P, et al., “Hapten-induced model of chronic inflammation and ulceration in the rat colon.” Gastroenterology. 1989; 96:795-803. […] Rats were anesthetized with 3% isofluorane and placed on a regulated heating pad set at 37° C. A gavage needle was inserted rectally into the colon 7 cm. The hapten trinitrobenzenesulfonic acid (TNBS) dissolved in 50% ethanol (v/v) was delivered into the lumen of the colon through the gavage needle at a dose of 30 mg/kg, in a total volume of 0.4-0.6 mL, as described in Mazelin, supra. Control groups received saline solution (NaCl 0.9%) intracolonically. Four days after induction of colitis, the colon was resected from anesthetized rats, which were then euthanized by decapitation. Weights of excised colon and spleen were measured, and the colons photographed for scoring of gross morphologic damage according to Table 1 before division into 3 parts. The segment of colon 1 cm from the cecum was fixed in 10% formalin. Other segments were immediately frozen on dry ice. Inflammation was defined as regions of hyperemia and bowel wall thickening. […] [table] For this assay, 5 treatment groups were set up as follows: • Group A (n=3). intracolonic saline with subcutaneous treatment of saline; • Group B (n=8). subcutaneous treatment of saline prior to induction of colitis by 30 mg/kg TNBS; • Group C (n=10). […] Positive control—intramuscular injection of Depo-Medrol 600 μg/kg 60 min prior to induction of colitis by 30 mg/kg TNBS; • Group E (n=10). Positive control, 5-amino salicylic acid (Sigma) suspension at 200 mg/kg intracolonic administration in 0.5 mL saline, 60 min before induction of colitis and daily thereafter. Results"}
{"smiles": "CC(=O)OCC(=O)[C@@]1(O)CC[C@H]2[C@@H]3C[C@H](C)C4=CC(=O)C=C[C@]4(C)[C@H]3[C@@H](O)C[C@@]21C", "note": "[Depo-Medrol]", "values": [{"measurement": "gross morphologic damage score index", "result": "1.12±0.26"}, {"measurement": "spleen weight (systemic immune suppression)", "result": "decreased"}]}
{"smiles": "Nc1ccc(O)c(C(=O)O)c1", "note": "[5-ASA, 5-aminosalicylic acid]", "values": [{"measurement": "gross morphologic damage score index", "result": "1.62±0.62"}, {"measurement": "spleen weight (systemic immune suppression)", "result": "not decreased"}]}
